Where a name gives a salt, the structure may show the parent alone. Read-outs that look alike come from different tables or passages of the source.
Assays:
[1] = Solubility test in sterile water for injection (saturated filtrate, HPLC, m-AMSA base content); assay type: physicochemical; conditions: 0.22μ filtrate, HPLC assay within one hour after reconstitution
Protocol: To determine the relative solubilities of the pyroglutamate salts and compositions of the present invention and the prior art m-AMSA methanesulfonate salt, the following solubility test was carried out.
The following formulations were tested: […]
The formulations were prepared as follows: […]
(1) The m-AMSA methanesulfonate salt was prepared by slurrying 1 g of m-AMSA base in 125 ml of acetone for 20 minutes. The resulting near solution was vacuum filtered to remove undissolved solids. The solids remaining in the filter were washed with 10 ml of acetone and the wash solution was added to the original filtrate. To the above solution of m-AMSA base there was added with rapid stirring 0.24 ml of methanesulfonic acid over a three minute interval. Crystals formed and the mixture was stirred five additional minutes. The crystals were then vacuum filtered, washed with two 20 ml portions of acetone and vacuum dried at 50° C. for 24 hours to give 1.18 g of m-AMSA methanesulfonate (1:1) salt.
(2) The composition containing m-AMSA base and methanesulfonic acid (1:2 ratio) was prepared by adding 1 equivalent of methanesulfonic acid to the 1:1 m-AMSA methanesulfonate salt prepared above.
(3) The 1:1 m-AMSA pyroglutamate salt was prepared as described in Example 1.
(4) The 1:2 m-AMSA pyroglutamate salt was prepared as described in Example 2.
To carry out the solubility test, accurately weighed amounts of the above-described formulations were added into accurately measure amounts of sterile water for injection and the mixture was shaken by Vortex® mixer for 5 minutes to yield a complete solution. The procedure was continued until no more material dissolved in the solution. The saturated solutions were then passed through a 0.22μ Millipore® filter. The resultant clear filtrates were sampled and assayed via HPLC assay within one hour after reconstitution. Solubility was measured as the m-AMSA base content in the filtrate.

[2] = physchem; assay type: physicochemical; conditions: water
Protocol: DL-Pyroglutamic acid (130 mg) was dispersed in 20 ml of acetone to form a solution. To this solution there was added 400 mg of m-AMSA free base. The mixture was stirred and 10 ml of methyl alcohol added drop by drop. Upon agitation, a yellow solid gradually precipitated. The precipitate was collected, washed twice with acetone and dried in vacuo to give the title salt having a melting point of 156°-158° C. and an aqueous solubility at room temperature of about 10 mg/ml.
m-AMSA base (400 mg) was suspended in 30 ml of dried acetone. With gentle stirring, a solution was obtained by gradually adding a solution of 260 mg of DL-pyroglutamic acid in 15 ml of methanol to the above suspension. Two 10 ml portions of dried methanol were added to the solution to precipitate the dipyroglutamate salt. The salt was isolated by filtration, washed with methanol and dried in a vacuum dessicator. The yield of dipyroglutamate salt was about 600 mg; mp 145°-148° C.

[3] = literature references / prior art, cited from earlier work
[4] = physchem; assay type: physicochemical; conditions: water, found by the present inventors, read-out: aqueous solubility
[5] = system: animal tumor systems; conditions: Cain et al. 1974; cited from earlier work
[6] = initial results; cited from earlier work
[7] = penicillin G, ampicillin, cephalothin etc.; U.S. Pat. No. 3,920,814; cited from earlier work

COc1cc(NS(C)(=O)=O)ccc1Nc1c2ccccc2nc2ccccc12 [Example 1, m-AMSA Mono DL-Pyroglutamate Salt]
Solubility (mg/ml m-AMSA base) ([1]; listed as m-AMSA pyroglutamate salt (1:1)): 12.5 mg/ml m-AMSA base | solubility ([2]; room temperature, read-out: aqueous solubility): ~10000 µg/mL

COc1cc(NS(C)(=O)=O)ccc1Nc1c2ccccc2nc2ccccc12 [Example 2, m-AMSA Di DL-Pyroglutamate Salt]
Solubility (mg/ml m-AMSA base) ([1]; listed as m-AMSA pyroglutamate salt (1:2)): 13.1 mg/ml m-AMSA base | solubility ([2]; m-AMSA base content by HPLC, read-out: aqueous solubility (m-AMSA base content as determined by HPLC)): 13100 µg/mL

COc1cc(NS(C)(=O)=O)ccc1Nc1c2ccccc2nc2ccccc12 [m-AMSA methanesulfonate salt (1:1), m-AMSA methanesulfonate salt]
solubility in water (words) ([3]; listed as monomethanesulfonate salt of m-AMSA, methanesulfonate salt): sufficiently soluble for experimental small animal (mice) antitumor studies | solubility in water (words) ([3]; listed as monomethanesulfonate, methanesulfonate salt): insufficiently water-soluble for practical dosage forms | solubility in water (words) ([3]; methanesulfonate salt): only slightly soluble in water | Solubility (mg/ml m-AMSA base) ([1]; methanesulfonate salt): 0.090 mg/ml m-AMSA base | solubility [4]: ~90 µg/mL

COc1cc(NS(C)(=O)=O)ccc1Nc1c2ccccc2nc2ccccc12 [m-AMSA]
solubility in water (words) [3]: very limited solubility in water | antitumor activity [5]: significant antitumor activity | clinical evaluation [6]: very promising initial results

COc1cc(NS(C)(=O)=O)ccc1Nc1c2ccccc2nc2ccccc12 [monohydrochloride]
solubility in water (words) [3]: insufficiently water-soluble for practical dosage forms | solubility in water (words) ([3]; listed as hydrochloride): only slightly soluble in water

O=C1CCC(C(=O)O)N1 (stereo not drawn) [pyroglutamic acid, 2-pyrrolidone-5-carboxylic acid]
effect on antibiotics [7]: potentiate the intrinsic activity and blood levels of certain antibiotics

Reference: US4575509A, “Water-soluble formulations of m-AMSA with pyroglutamic acid” (Bristol-Myers Company, priority 1984, dated 1986)
